# From US12433882B2, “Treatments for amyotrophic lateral sclerosis using dazucorilant” (Corcept Therapeutics Incorporated, priority 2022, dated 2025)
# System: effect of prednisone on eosinophils, lymphocytes, neutrophils, osteocalcin
# Test: First In Human study Part 3, proof of pharmacological effect (prednisone challenge)
# Type: in vivo
# Description: Linear mixed model of PD parameter estimates from part 3 of the FIE study, including terms for treatment fitted as a fixed effect, subject fitted as a random effect, and baseline concentration values fitted as a covariate. AUEC, area under the effect curve; cfb, change from baseline; CI, confidence interval; Emax, maximum change; ns, not significant.
smiles,measurement,setting,value
"C[C@]12C=CC(=O)C=C1CC[C@@H]1[C@@H]2C(=O)C[C@@]2(C)[C@H]1CC[C@]2(O)C(=O)CO [Prednisone, prednisone]",EOSINOPHILS AUEC(0-24) cfb (adjusted arithmetic mean),Prednisone (25 mg) alone,−2.80 109*h/L
same,LYMPHOCYTES AUEC(0-24) cfb (adjusted arithmetic mean),Prednisone (25 mg) alone,−2.470 109*h/L
same,NEUTROPHILS AUEC(0-24) cfb (adjusted arithmetic mean),Prednisone (25 mg) alone,74.7 109*h/L
same,"effect of a single dose on eosinophils, lymphocytes, osteocalcin and neutrophils",single dose of prednisone,"decreased eosinophils, lymphocytes, and osteocalcin, and increased neutrophils"
